Data published in patent US20050267073A1, “Triheterocyclic compounds, compositions, and methods for treating cancer or viral diseases” (priority 2004, published 2005).
Converted amounts (≈) assume the structure as drawn. Where a name gives a salt, the structure may show the parent alone. Read-outs that look alike come from different tables or passages of the source.

Assays:
[1] = system: C33A cervical carcinoma cells; assay: cells; assay type: cell-based; settings: Homo sapiens, C-33-A, read-out: IC50 (μM) C33A, Effect on Cancer Cells Viability
From the text: (§1) […]. […] […]. The total dimethyl sulfoxide on the cells was 1%. […] […].
(§2) As depicted in Table 4, these compounds were efficient in decreasing cellular ATP levels in HI 299 and C33A cancer cell lines. Nevertheless, these compounds are believed to have utility in the in vivo methods of the invention, i.e., treatment and prevention of cancer and viral infections, respectively. It should be noted that, although this cell-based assay is believed to be indicative of anti-oncogenic activity in vivo, it is not the only useful assay for evaluating the anti-oncogenic activity of Triheterocyclic Compounds of the invention. In addition, the anti-viral and other biological activity of compounds of the invention can be determined and evaluated in other assay systems known to the skilled artisan.

[2] = system: H1299 human non-small cell lung cancer cells; assay: Cell viability by cellular ATP levels (ViaLight), H1299 cells; assay type: cell-based; settings: Homo sapiens
From the text: as §1, §2

[3] = Shelf stability (precipitation) of formulation; assay type: physicochemical; settings: 0.6 mg/mL in 9.6% polyethylene glycol 300, 0.4% polysorbate 20 and 5% dextrose
Procedure: (§4) To determine whether a compound is soluble in a solution, the solution was filtered on 0.2 μM polytetrafluoroethylene filters (Whatman Inc. Clifton, N.J., USA) and the compound concentration in the filtrate was measured by LC/MS and compared to the expected concentration.

[4] = system: human prostatic adenocarcinoma cancer PC3 cells; assay: Growth of PC3 prostatic tumors in SCID mice; assay type: in vivo; settings: 5 consecutive intravenous injections; Compound 1 Mesylate Salt 4.84 μMoles/Kg; Compound 66 4.84 or 14.51 μMoles/Kg; FIG. 6
Procedure: The human prostatic adenocarcinoma cancer PC3 cells were purchased from the American Type Culture Collection (ATCC). These cells were confirmed to be free of mycoplasma infection. Cells were maintained in the Roswell Park Memorial Institute (RPMI), supplemented with 10% inactivated fetal bovine serum and 1% penicillin-streptomycin-L-Glutamine, under 5% carbon dioxide (CO2) at 37° C. For prostatic-tumor induction, cells were grown lower than 70% confluence in complete medium and then collected with trypsin (Bio Whittaker, Rockland, Me., USA). Cells were then centrifuged and washed 2 times in phosphate buffer solution (PBS) and resuspended in PBS at 1.5×10^6 cells/0.1 mL. PC3 cells were then transplanted subcutaneously into the flank of SCID mice (Charles River Laboratories, Wilmington, Mass., USA), as a suspension of tumor cells (1.5×10^6 cells in 100 μL PBS), under a laminar airflow hood. Eleven (11) days later, the size of each tumor was measured. […] Relative tumor size and volume was calculated as follows: length (cm)×[width (cm)]^2/2. […]

[5] = assay type: in vivo, CB17 SCID/SCID mice
Procedure: Treatments started on day fourteen after C33A cells transplantation. […]. The negative control group was treated with vehicle alone. […].
Observation continued for 40 days after initial tumor implantation.

[6] = target: T1, human placental alkaline phosphatase (Homo sapiens, UniProt P05187); assay: Conversion of phosphate pro-drug by human placental alkaline phosphatase in vitro; assay type: in vitro ADME; settings: 15 μM, 0.02 U/100 μL enzyme, pH 7.4; 30, 60, 120 minutes; FIG. 4
T1 construct: purchased Sigma-Aldrich Canada Ltd
T1 sequence (P05187 23-506): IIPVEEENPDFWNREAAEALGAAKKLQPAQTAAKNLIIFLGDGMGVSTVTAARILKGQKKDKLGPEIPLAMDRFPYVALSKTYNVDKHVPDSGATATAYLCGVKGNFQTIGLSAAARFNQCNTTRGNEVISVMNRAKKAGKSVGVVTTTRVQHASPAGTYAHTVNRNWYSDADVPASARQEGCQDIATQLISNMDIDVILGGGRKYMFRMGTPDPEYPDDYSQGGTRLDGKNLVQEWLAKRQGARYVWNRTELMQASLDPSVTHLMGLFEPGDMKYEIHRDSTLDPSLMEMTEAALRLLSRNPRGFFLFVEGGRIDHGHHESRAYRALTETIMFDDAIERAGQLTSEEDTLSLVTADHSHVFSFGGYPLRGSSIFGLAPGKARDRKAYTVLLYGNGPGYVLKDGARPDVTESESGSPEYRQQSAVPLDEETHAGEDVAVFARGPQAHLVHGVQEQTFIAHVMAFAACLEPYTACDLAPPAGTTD
Procedure: (§3) The conversion into biologically active drug of phosphate pro-drugs by calf intestinal alkaline phosphatase and human placental alkaline phosphatase was measured in vitro using purified enzymes. Purified calf intestinal alkaline phosphatase (Roche Diagnostic Inc. Laval, Quebec, Canada) or human placental alkaline phosphatase (Sigma-Aldrich Canada Ltd. Oakville, Ontario, Canada) was added at a concentration of 0.02 U/100 μL to a solution containing 15 μM of Compound 66, 20 mM Tris-HCl, pH 7.4 and 0.9% NaCl. The solutions were incubated for 30, 60 or 120 minutes. A solution containing 15 μM of Compound 66, 20 mM Tris-HCl, pH 7.4 and 0.9% NaCl was used as a reference (time=0 minutes). To each solution, an equal volume (100 μL) of ice-cold acetonitrile was added, and then the mixture was vortexed and transferred to glass vials. A standard concentration curve of the pro-drug and the drug was prepared in 10 mM Tris-HCl, pH 7.4, 0.45% NaCl and 50% acetonitrile. All samples were immediately analyzed by LC/MS.

[7] = system: calf intestinal alkaline phosphatase; assay: Conversion of phosphate pro-drug by calf intestinal alkaline phosphatase in vitro; assay type: in vitro ADME; settings: 15 μM, 0.02 U/100 μL enzyme, pH 7.4; 30, 60, 120 minutes; FIG. 5
Procedure: as §3

physchem = settings: water
Procedure: as §4

[8] = C33A, cellular ATP levels as described in Example 2
[9] = NCI-H1299, H1299, cellular ATP levels as described in Example 2, read-out: IC50 (μM) H1299, Effect on Cancer Cells Viability

IC50 [1, 8]	IC50 [2, 9]	SMILES	further results
50 µM	50 µM	COC1=CC(c2cc3cc(OC)ccc3n2C(=O)OC(C)(C)C)=N/C1=C\c1[nH]c(C)cc1C [Compound 30, 2-[5-(3,5-Dimethyl-1H-pyrrol-2-ylmethylene)-4-methoxy-5H-pyrrol-2-yl]-5-methoxy-indole-1-carboxylic acid tert-butyl ester]	–
7.23 µM	7.98 µM	CCOC(=O)C(=O)c1c(C)[nH]c(/C=C2\N=C(c3[nH]c4ccccc4c3C(=O)C(=O)OCC)C=C2OC)c1C [Compound 20, {2-[5-(4-Ethoxyoxalyl-3,5-dimethyl-1H-pyrrol-2-ylmethylene)-4-methoxy-5H-pyrrol-2-yl]-1H-indol-3-yl}-oxo-acetic acid ethyl ester]	–
–	–	CCOC(=O)COC1=CC(c2cc3ccccc3[nH]2)=N/C1=C\c1[nH]c(C)cc1C [Compound 53, [2-(3,5-Dimethyl-1H-pyrrol-2-ylmethylene)-5-(1H-indol-2-yl)-2H-pyrrol-3-yloxy]-acetic acid ethyl ester]	IC50 [1]: 10.2 µM; IC50 ([2]; NCI-H1299, read-out: IC50 (μM) H1299, Effect on Cancer Cells Viability): 10.6 µM
0.165 µM	0.202 µM	COc1cccc(COC2=CC(c3cc4ccccc4[nH]3)=N/C2=C\c2[nH]c(C)cc2C)c1 [Compound 51, 2-[5-(3,5-Dimethyl-1H-pyrrol-2-ylmethylene)-4-(3-methoxy-benzyloxy)-5H-pyrrol-2-yl]-1H-indole]	–
–	–	COC1=CC(c2cc3ccccc3[nH]2)=N/C1=C\c1[nH]c(C)cc1C [Compound 1 Mesylate Salt]	precipitation of formulation [3]: no evidence of precipitation 72 hours after its preparation; growth of prostatic tumors in mice [4]: significantly reduce the growth of prostatic tumors
5.6 µM	5.84 µM	COC1=CC(c2cc3c(O)cccc3[nH]2)=N/C1=C\c1[nH]c(C)cc1C [Compound 59, 2-[5-(3,5-Dimethyl-1H-pyrrol-2-ylmethylene)-4-methoxy-5H-pyrrol-2-yl]-1H-indol-4-ol]	–
0.173 µM	0.173 µM	COC1=CC(c2cc3ccccc3n2C(=O)c2ccc(Br)cc2)=N/C1=C/c1[nH]c(C)cc1C [Compound 55, (4-Bromo-phenyl)-{2-[5-(3,5-dimethyl-1H-pyrrol-2-ylmethylene)-4-methoxy-5H-pyrrol-2-yl]-indol-1-yl}-methanone]	–
0.25 µM	0.493 µM	CNCc1c(C2=N/C(=C\c3[nH]c(C)cc3C)C(OC)=C2CO)[nH]c2ccccc12 [Compound 10, [5-(3,5-Dimethyl-1H-pyrrol-2-ylmethylene)-4-methoxy-2-(3-methylaminomethyl-1H-indol-2-yl)-5H-pyrrol-3-yl]-methanol]	–
1.32 µM	1.97 µM	COC1=CC(c2cc3ccccc3n2Cc2ccc(O)cc2)=N/C1=C\c1[nH]c(C)cc1C [Compound 58, 4-{2-(5-(3,5-Dimethyl-1H-pyrrol-2-ylmethylene)-4-methoxy-5H-pyrrol-2-yl]-indol-1-ylmethyl}-phenol]	–
0.307 µM	0.983 µM	COC1=C(CO)C(c2[nH]c3ccccc3c2CNC(C)C)=N/C1=C\c1[nH]c(C)cc1C [Compound 11, {5-(3,5-Dimethyl-1H-pyrrol-2-ylmethylene)-2-[3-(isopropylamino-methyl)-1H-indol-2-yl]-4-methoxy-5H-pyrrol-3-yl}-methanol]	–
0.509 µM	1.21 µM	Cc1cc(C)c(/C=C2\N=C(c3cc4ccccc4[nH]3)C=C2O)[nH]1 [Compound 50, 2-(3,5-Dimethyl-1H-pyrrol-2-ylmethylene)-5-(1H-indol-2-yl)-2H-pyrrol-3-ol]	–
1.79 µM	3.35 µM	COC1=CC(c2cc3ccccc3[nH]2)=N/C1=C\c1[nH]c(C)c(CCCO)c1C [Compound 41, 3-{5-[5-(1H-indol-2-yl)-3-methoxy-pyrrol-2-ylidenemethyl]-2,4-dimethyl-1H-pyrrol-3-yl}-propan-1-ol]	–
0.716 µM	0.887 µM	Cc1cc(C)c(/C=C2\N=C(c3cc4ccc(F)cc4[nH]3)C=C2OC(C)C)[nH]1 [Compound 45, 2-[5-(3,5-Dimethyl-1H-pyrrol-2-ylmethylene)-4-isopropoxy-5H-pyrrol-2-yl]-6-fluoro-1H-indole]	–
–	–	N.N.[Cl][Pt][Cl] [cisplatin, reference compound]	deaths ([5]; cisplatin 4 mg/kg IP, days 29 and 32): Two mice died; weight loss ([5]; day 29, cisplatin 4 mg/kg IP once every 3 days for five times): 28%
–	–	COC1=CC(c2cc3ccccc3n2C(=O)CC(C)(C)c2c(C)cccc2OP(=O)(O)O)=N/C1=C/c1[nH]c(C)cc1C [Compound 66]	conversion of pro-drug into Compound 1 [6]: convert a fraction of the pro-drug; conversion of pro-drug into Compound 1 [7]: convert a fraction of the pro-drug; growth of prostatic tumors in mice [4]: significantly reduce the growth of prostatic tumors; solubility (physchem): 10 mg/mL (≈ 17 mM)
1.11 µM	1.04 µM	COC1=CC(c2cc3ccccc3n2C(=O)Nc2ccc(N(C)C)cc2)=N/C1=C\c1[nH]c(C)cc1C [Compound 52, 2-[5-(3,5-Dimethyl-1H-pyrrol-2-ylmethylene)-4-methoxy-5H-pyrrol-2-yl]-indole-1-carboxylic acid (4-dimethylamino-phenyl)-amide]	–
0.583 µM	0.494 µM	COC1=CC(c2cc3c(OC(=O)OC(C)(C)C)cccc3[nH]2)=N/C1=C\c1[nH]c(C)cc1C [Compound 36, Carbonic acid tert-butyl ester 2-[5-(3,5-dimethyl-1H-pyrrol-2-ylmethylene)-4-methoxy-5H-pyrrol-2-yl]-1H-indol-4-yl ester]	–
10 µM	15.3 µM	COC1=CC(c2[nH]c3ccccc3c2C(=O)c2ccoc2)=N/C1=C\c1[nH]c(C)cc1C [Compound 27, {2-[5-(3,5-Dimethyl-1H-pyrrol-2-ylmethylene)-4-methoxy-5H-pyrrol-2-yl]-1H-indol-3-yl}-furan-3-yl-methanone]	–
7.17 µM	8.46 µM	COC1=CC(c2cc3ccccc3n2CCO)=N/C1=C\c1[nH]c(C)cc1C [Compound 40, 2-{2-[5-(3,5-Dimethyl-1H-pyrrol-2-ylmethylene)-4-methoxy-5H-pyrrol-2-yl]-indol-1-yl}-ethanol]	–
